Experimental data as given in patent US20140341895A1, “PSEUDOMONAS AERUGINOSA OprM EPITOPES FOR USE IN DIAGNOSTICS AND THERAPEUTICS” (priority 2011, published 2014).
No end group written: not given here.

How the values were obtained:
[1] = test system: P. aeruginosa strain MSC06120; conditions: multidrug resistant P. aeruginosa strain MSC06120; stated as normal values; cited from earlier work
OprM outer loops = test: rabbit immunization with KLH-conjugated OprM outer loop peptides, sera screened for immune reaction; type: in vivo; conditions: NZW rabbits, 500 μg per injection subcutaneously on days 0, 21, 42, 63, 84, 105; sera screened for immune reaction to OprM outer loops
Method: Polyclonal antibodies were produced using each of the OprM outer loops (with surrounding amino acid residues) conjugated to KLH as immunogens. Rabbits were screened prior to antigen injection for background antibodies that recognize the OprM outer loop immunogens to be used (i.e., SEQ ID NOS:3 and 4). Pre-immune rabbit sera was assayed by ELISA for antibodies to the immunogen.
Eight NZW rabbits were immunized on days 0, 21, 42, 63, 84 and 105 subcutaneously with either KLH-conjugated OprM outer loop 1 (SEQ ID NO:3) or outer loop 2 (SEQ ID NO:4) peptides (500 μg per injection). The Day 0 injection was formulated with Titermax while all subsequent injections were formulated with Freund's incomplete adjuvant. The rabbits were bled on days 52 (5 ml serum obtained), 73 (20 ml serum obtained), 94 (20 ml serum obtained), 115 (20 ml serum obtained) and 118 (50 ml serum obtained).

[2] = molecular target: T1, OprM outer loop 1 (SEQ ID NO:3) (Pseudomonas aeruginosa, UniProt Q51487); test: ELISA of immunized rabbit sera, antigen outer loop 1 peptide; type: binding; conditions: antigen SEQ ID NO:3; four rabbits per immunogen; FIG. 1 and 2
T1 construct: made in house; host or cells: chemical peptide synthesis
T1 sequence (Q51487 whole entry, looked up): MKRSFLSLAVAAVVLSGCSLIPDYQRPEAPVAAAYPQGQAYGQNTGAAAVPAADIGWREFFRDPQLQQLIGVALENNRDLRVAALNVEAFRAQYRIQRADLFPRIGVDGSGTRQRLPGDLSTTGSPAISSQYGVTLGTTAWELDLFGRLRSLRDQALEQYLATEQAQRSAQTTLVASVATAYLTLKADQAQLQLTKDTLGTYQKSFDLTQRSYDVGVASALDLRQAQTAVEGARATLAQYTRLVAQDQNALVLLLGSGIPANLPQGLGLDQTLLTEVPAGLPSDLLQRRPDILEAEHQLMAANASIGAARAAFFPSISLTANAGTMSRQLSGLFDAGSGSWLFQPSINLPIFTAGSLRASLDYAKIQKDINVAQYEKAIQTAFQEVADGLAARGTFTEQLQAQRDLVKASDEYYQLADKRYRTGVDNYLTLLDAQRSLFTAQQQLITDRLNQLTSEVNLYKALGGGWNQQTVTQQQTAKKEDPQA
Method: (§1) Sera was assayed by ELISA to measure the amount of anti-OprM antibodies that were induced by the immunization. Purified peptide from either outer loop 1 or outer loop 2 was plated each well of a 96-well plate. A solution of PBS+3% BSA was used for non-specific blocking and sample/control/secondary antibody dilutions. The sample serum was run against a negative control (normal sera) and a positive control (anti-ovalbumin). The signal was detected using HRP conjugated anti-rabbit secondary antibodies and ABTS peroxidase substrate system. The plates were read at a wavelength of 415 nm with a reference at 570 nm.

[3] = molecular target: T2, OprM outer loop 2 (SEQ ID NO:4) (Pseudomonas aeruginosa, UniProt Q51487); test: ELISA of immunized rabbit sera, antigen outer loop 2 peptide; type: binding; conditions: antigen SEQ ID NO:4; four rabbits per immunogen; FIG. 1 and 2
T2 construct: made in house; host or cells: chemical peptide synthesis
T2 sequence (Q51487 whole entry, looked up): T1 sequence (Q51487 whole entry, looked up)
Method: as §1

| Molecule | growth inhibitory concentration [1] [µg/mL] | immune response in immunized rabbits (OprM outer loops) | antibodies in sera binding to peptide containing outer loop 1 (titer / cross-reactivity), ELISA [2] | antibodies in sera binding to peptide containing outer loop 2 (titer / cross-reactivity), ELISA [3] |
| --- | --- | --- | --- | --- |
| O=C(O)c1cn(C2CC2)c2cc(N3CCNCC3)c(F)cc2c1=O [ciprofloxacin] | > 256 | – | – | – |
| NCC[C@H](O)C(=O)N[C@@H]1C[C@H](N)[C@@H](O[C@H]2O[C@H](CN)[C@@H](O)[C@H](O)[C@H]2O)[C@H](O)[C@H]1O[C@H]1O[C@H](CO)[C@@H](O)[C@H](N)[C@H]1O [amikacin] | 64 | – | – | – |
| outer loop 2 (SEQ ID NO:4): OprM outer loop 2 peptide with surrounding residues (SEQ ID NO:4), N-terminal CKK added, conjugated to keyhole limpet hemocyanin carrier (CKKSRQLSGLFDAGSG; also: conjugated to KLH carrier, site not given here; listed as Pseudomonas aeruginosa) | – | generated an immune response | 2 rabbits showed a small amount of cross-reactivity | high titer |
| KLH-conjugated OprM outer loop 1 (SEQ ID NO:3): OprM outer loop 1 peptide with surrounding residues (SEQ ID NO:3), N-terminal CKK added, conjugated to keyhole limpet hemocyanin carrier (CKKRLPGDLSTTGSPA; also: conjugated to KLH carrier, site not given here; listed as Pseudomonas aeruginosa) | – | generated an immune response | high titer | 1 rabbit showed a small amount of cross-reactivity |
